The values below come from article PMC9343080, “Distribution- and Metabolism-Based Drug Discovery: A Potassium-Competitive Acid Blocker as a Proof of Concept” (Research, 2022).

For data set [1], the system named is 2-DG-stimulated gastric acid secretion. Description: In vivo inhibition of 2DG-stimulated acid secretion in anesthetized rats. Further details: species or system rat. As to conditions: i.g. 2 mg/kg. How it is done:
(§1) 60 SPF SD rats weighing 180-220 g were randomly divided into […]: sham, model, SH-337 (2 mg/kg and 4 mg/kg), vonoprazan (2 mg/kg), males and females are equally divided. Fasting for 24 hours, model and sham groups were treated with deionized water. Drugs and vehicle were given through intragastric administration to rats before anesthesia. 1 h after administration, pylorus was ligated. 5 min later, histamine 2HCl (30 mg/10 mL/kg) was injected subcutaneously. At 3 h after histamine administration, the rats were killed by CO2 asphyxiation. The gastric contents were collected in a 10 mL centrifuge tube after removing their stomachs. Centrifuge at 3000 g for 10 min, and then, determine the total acid output during a 3 h period by 0.1 M NaOH [52, 53]. %Inhibition = (average of modelacid–drugacid)/average of modelacid × 100%.
The 2DG-stimulated acid secretion in anesthetized rats was measured as described as for histamine-stimulated acid secretion, with the exception that 5 min after pylorus ligation, 2-DG (200 mg/10 mL/kg) was injected subcutaneously.

Data set [2] deals with T1, rabbit gastric H+, K+-ATPase (Oryctolagus cuniculus, UniProt P27112).
T1 construct: using rabbit gastric H^+, K^+-ATPase; from tissue; host or cells: rabbit stomach (gastric preparation; the method of preparation is not described)
The data set is described as follows: In vitro enzymatic activity assay (inorganic phosphate from ATP hydrolysis). The format is biochemical. How it is done: The in vitro enzymatic activity was calculated by measuring the inorganic phosphate produced by the hydrolysis of ATP using rabbit gastric H^+, K^+-ATPase. 0.25 μg enzyme was preincubated at 37°C for 30 min in Tris-HCl buffer (2.0 mL, 50 mM, pH 6.5) containing 5 mM MgCl2, 10 μM valinomycin, 0 or 20 mM KCl, and different concentrations of SH-337 and vonoprazan. The reaction was initiated by adding 5 μL of 5 mM ATP 2Na, and the preparation was incubated for 30 min at 37°C and halted by the addition of 100 μL of malachite green reagent (0.12% malachite green, 7.5% ammonium molybdate, and 11% tween 20 were mixed in a volume ratio of 100 : 25 : 2). H^+, K^+-ATPase activity was calculated after subtracting the enzyme activity in the absence of KCl.

A short description of data set [3]: Human microsomal stability. The class given is in vitro ADME. As to conditions: human, human liver microsomes; read-out: Metabolic stability (t1/2) human. The protocol:
(§2) The in vitro metabolic stabilities of selected compounds were performed using human and rat liver microsomes in triplicate as described previously.
In general terms: Microsomes from liver hold many membrane-bound enzymes, among them those of drug oxidation.

The conditions of data set [4]: cited from earlier work; for Drug concentration, Plasma: 2 mg/kg.
The conditions of data set [5]: pH 7.4; ref [35], [38], [39]; cited from earlier work.
Data set [6] in a line: Rat microsomal stability. The class given is in vitro ADME. The following applies: rat, rat liver microsomes; read-out: Metabolic stability (t1/2) rat. The protocol: as §2
Data set [7] deals with Na+, K+-ATPase. Description: In vitro Na+, K+-ATPase activity. The format is biochemical.
For data set [8] the following is noted: ref [43], cited from earlier work.
Data set [9] concerns histamine-stimulated gastric acid secretion. Description: In vivo inhibition of histamine-stimulated acid secretion in anesthetized rats. Details: species or system rat. The protocol: as §1
Data set [10] is described as follows: Tissue distribution of vonoprazan and its metabolites in rats (previous studies). The class given is in vivo, rat. As to conditions: 1 h after oral 2.0 mg/kg, calculated from data of a previous study, ref [40].
Where [11] appears, read: AUC0–24, rats, i.g. 2 mg/kg vonoprazan, ref [43].
Where [12] appears, read: rats, 1 h after oral administration of 2.0 mg/kg, ref [40].
Where [13] appears, read: rats, i.g. 2 mg/kg vonoprazan, ref [43].

Structures are written as SMILES. Where two headings read alike, the source gives them in different places. Marks after values point to notes of the source that are not given here.

T1 sequence (P27112 whole entry): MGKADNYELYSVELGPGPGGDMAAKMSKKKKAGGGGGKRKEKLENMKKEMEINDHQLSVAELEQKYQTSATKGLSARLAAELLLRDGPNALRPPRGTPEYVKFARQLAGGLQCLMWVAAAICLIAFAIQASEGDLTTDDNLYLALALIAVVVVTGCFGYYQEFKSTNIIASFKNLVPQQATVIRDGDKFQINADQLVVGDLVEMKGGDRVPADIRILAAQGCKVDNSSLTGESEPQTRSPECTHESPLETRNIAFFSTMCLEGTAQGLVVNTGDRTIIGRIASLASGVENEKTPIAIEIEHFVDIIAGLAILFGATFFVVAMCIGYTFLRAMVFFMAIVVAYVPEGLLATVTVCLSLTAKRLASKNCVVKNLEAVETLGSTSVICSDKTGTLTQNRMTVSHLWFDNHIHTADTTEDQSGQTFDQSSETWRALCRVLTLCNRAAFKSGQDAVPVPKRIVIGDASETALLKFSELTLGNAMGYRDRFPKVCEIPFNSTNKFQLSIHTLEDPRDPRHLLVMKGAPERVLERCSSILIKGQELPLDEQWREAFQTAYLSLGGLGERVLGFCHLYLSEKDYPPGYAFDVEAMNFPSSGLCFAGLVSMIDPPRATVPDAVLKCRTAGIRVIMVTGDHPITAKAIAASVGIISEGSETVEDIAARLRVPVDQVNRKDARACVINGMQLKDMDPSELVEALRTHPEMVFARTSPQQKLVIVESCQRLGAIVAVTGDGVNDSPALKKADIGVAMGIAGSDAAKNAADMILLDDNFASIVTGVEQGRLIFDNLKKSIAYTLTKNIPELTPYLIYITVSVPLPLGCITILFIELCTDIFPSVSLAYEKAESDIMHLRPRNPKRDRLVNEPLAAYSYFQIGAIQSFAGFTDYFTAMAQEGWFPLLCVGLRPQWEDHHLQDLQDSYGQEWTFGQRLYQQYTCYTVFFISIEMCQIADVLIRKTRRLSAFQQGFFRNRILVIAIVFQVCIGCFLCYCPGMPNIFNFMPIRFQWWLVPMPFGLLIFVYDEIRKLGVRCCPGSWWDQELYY
T1 sequence (P18597 whole entry partner): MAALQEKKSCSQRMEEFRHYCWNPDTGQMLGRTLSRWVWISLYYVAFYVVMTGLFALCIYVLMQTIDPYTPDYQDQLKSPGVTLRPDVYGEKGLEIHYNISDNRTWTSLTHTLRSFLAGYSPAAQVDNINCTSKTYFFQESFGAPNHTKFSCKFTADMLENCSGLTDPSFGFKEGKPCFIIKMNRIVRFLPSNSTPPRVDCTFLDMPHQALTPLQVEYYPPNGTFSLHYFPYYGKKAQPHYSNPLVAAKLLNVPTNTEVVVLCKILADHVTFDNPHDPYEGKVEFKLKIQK

By IC50 is commonly meant the concentration at which inhibition is half-maximal. For the compound `CNCc1cc(-c2ccccc2F)n(S(=O)(=O)c2cccnc2)c1.O=C(O)/C=C/C(=O)O` [Vonoprazan, 1-[5-(2-fluorophenyl)-1-(pyridin-3-ylsulfonyl)-1H-pyrrol-3-yl]-N-methylmethanamine fumarate], in data set [1], the “Inhibition (%), 2-DG-stimulated model” value was 80% and the “Total acid output, 2-DG-stimulated model” value is given as 0.62 ± 0.55^∗∗ 10^−4 mol. For the same compound, the IC50 in data set [2] is 0.0655 µM. In data set [3], the half-life was determined as 5.65 h. In data set [4] (setting [11]), the “C Stomach/CLiver (stomach-liver distribution ratio)” value is recorded as 3.2 and the “C Stomach/CPlasma (stomach-plasma distribution ratio)” value is listed as 165.0. Also, the “C Stomach/CPlasma (stomach-plasma distribution ratio)” value in data set [4] (AUC0–24, rats, i.g. 2 mg/kg vonoprazan, ref [43], listed as vonoprazan) was 165. For the same compound, in [4] (setting [12]), the “Drug concentration, Plasma” value was 11.0^c ng/mL and the “Drug concentration, Stomach” value is reported as 957.0^c ng/mL. The “Drug concentration, Plasma” value in data set [4] (rats, 1 h after oral administration of 2.0 mg/kg, ref [40], listed as vonoprazan) is given as 11 ng/mL. Moreover, in [4] (setting [13]), the “AUC0–24, Liver” value is on record as 4039.0 ng equiv. h/mL or g; the “AUC0–24, Plasma” value is listed as 79.0 ng equiv. h/mL or g; the “AUC0–24, Stomach” value is 13085.0 ng equiv. h/mL or g. In addition, in data set [5], the “log D7.4” value is recorded as 0.4^a. Further, the half-life in [6] was found to be 0.908 h. Further, the midpoint of inhibition in data set [7], the IC50, lay at 47.1 µM. Further, the Fold selectivity in [7] (Na+, K+-ATPase over H+, K+-ATPase) is recorded as 719.4 fold. For the same compound, in data set [8] (100 mg/kg dose of vonoprazan, males), the “ALT and total cholesterol” value was “high ALT and total cholesterol were observed in males”. In addition, in data set [8], the “no observed adverse effect level (NOAEL)” value is listed as 30 mg/kg. Moreover, the “In vivo efficacy (% inhibition)” value in data set [9] (histamine-induced acid secretion in rats, 2 mg/kg, i.g. (Table 2)) stood at 78%. For the same compound, the “Total acid output, histamine-stimulated model” value in data set [9] (rats, i.g. 2 mg/kg) was 0.29 ± 0.43^∗∗ 10^−4 mol. Also, the “C Stomach/CPlasma” value in data set [10] (2 mg/kg) is given as 87.0^e. For the same compound, the Kp at 1 h in [10] (rat, stomach/plasma, read-out: C Stomach/CPlasma) is 87.
